In series [1] the test system is rheumatoid arthritis patients. Further details: method as in PMID 29566740. As to conditions: monotherapy at 100 or 200 mg once daily or with methotrexate; cited from earlier work.
Details of series [2]: method as in Dixit et al. (2020) [10]. Particulars: rat, plasma, values in parentheses, ref Dixit et al. (2020) [10], cited from earlier work.
Series [3] has as its system collagen-induced arthritis model. Further details: method as in PMID 24006460. Particulars: post oral administration in rodents; cited from earlier work.
The test system of the next series is JAK1. As to conditions: cited from earlier work.
For a further series, the system named is JAK2. As to conditions: JAK1 over JAK2; cited from earlier work.
Series [4] is described as follows: Pharmacokinetic study in rats (oral and intravenous), filgotinib quantified from dried blood spots by LC-MS/MS. Particulars: male, Sprague Dawley, whole blood (dried blood spots), rat, DBS blood. Type of series: in vivo. Here is the method:
Freshly drawn rat blood was used to prepare the DBS cards. With the help of a calibrated pipette, 25 μL of the respective spiked CC/QC blood or whole blood collected from the pharmacokinetic study (post administration of filgotinib by intravenous and oral routes) was sampled on DBS card. Spiked cards were allowed to dry at ambient room temperature for 3 h and stored appropriately in a sealed bag with desiccant in a desiccator.
Using a hole puncher (Harri-Micro-Punch®), 3 mm diameter disc was punched from the center of each DBS (FTA DMPK-C Card) card directly into micro-centrifuge tubes. To each micro-centrifuge tube, 200 μL of 0.2% formic acid enriched with 100 ng/mL of IS was added, thereafter the contents were vortex mixed for 5 min (Thermomixer®, Eppendorf) and sonicated (Elmasonic S300 H) for 15 min at ambient room temperature. After sonication, to the same micro-centrifuge, 1.0 mL of ethyl acetate was added and the mixtures were vortexed further for 3 min. The samples were centrifuged at 14,000 rpm for 3 min. Clear organic layer (800 μL) was pipetted out after centrifugation and dried under gentle stream of nitrogen (Turbovap®, Zymark®,Kopkinton, MA, USA) at 50 °C. The residue was reconstituted with 200 μL of 0.2% formic acid in acetonitrile and 150 μL clear supernatant was aliquoted into a HPLC vial and 5.0 μL was injected onto the column for LC-MS/MS analysis.
All the animal experiments were approved by Institutional Animal Ethical Committee (IAEC/JDC/2019/189R). Male Sprague Dawley rats (n=8) were procured from Vivo Biotech, Hyderabad, India. The animals were housed in Jubilant Biosys animal house facility in a temperature (22 ± 2 °C) and humidity (30-70%) controlled room (15 air changes/hour) with a 12:12 h light:dark cycles, had free access to rodent feed (Altromin Spezialfutter GmbH & Co. KG., Im Seelenkamp 20, D-32791, Lage, Germany) and water for one week before using for experimental purpose. Following ~12 h fast (during the fasting period animals had free access to water) animals were divided into two groups having four rats in each group. Group I animals (205-210) received filgotinib orally as a suspension formulation (prepared using Tween-80 and 0.5% methyl cellulose) at 10 mg/kg (strength: 1.0 mg/mL; dose volume: 10 mL/kg), whereas Group II animals (215-225 g) received filgotinib intravenously (5% DMSO, 5% Solutol:absolute alcohol (1:1, v/v) and 90% of normal saline; strength: 0.5 mg/ml; dose volume: 4 ml/kg) at 2.0 mg/kg dose. Post-dosing serial blood samples (50 μL) were collected through retro-orbital plexus into polypropylene tubes containing K2.EDTA solution as an anti-coagulant at 0.25, 0.5, 1, 2, 4, 8, 10, 12 and 24 h (for oral study) and 0.083, 0.25, 0.5, 1, 2, 4, 8 and 24 h (for intravenous study). Animals were allowed to access feed 2 h post-dosing.
Blood concentration-time data of filgotinib was analyzed by non-compartmental method and the relevant pharmacokinetic parameters namely AUC0-∞ (area under the blood concentration-time curve from time zero to infinite time), C0 (extrapolated blood concentration at time zero), Cmax (maximum blood concentration), Tmax (time to reach Cmax), Vd (volume of distribution), CL (clearance) and t½ (terminal half-life) were calculated using Phoenix WinNonlin software (version 8.1; Pharsight Corporation, Mountain View, CA). Absolute oral bioavailability (F) was calculated using this formula [Dose (i.v.) × AUC(0-∞)oral / Dose (oral) × AUC(0-∞)i.v.] × 100.

Series [5] is described as follows: Stability of primary stock solutions in DMSO. The class given is physicochemical. Particulars: primary stock in DMSO stored at -20 °C. Here is the method: Two separate primary stock solutions of filgotinib were prepared at 1670 μg/mL in DMSO. Appropriate secondary and working stocks of filgotinib were prepared from primary stock by successive dilution of primary stock with methanol:water (80:20, v/v) to prepare the calibration curve (CC) and quality controls (QCs). The IS primary stock solution was made in DMSO at a concentration of 1000 μg/mL, which was diluted with methanol to 500 ng/mL and subsequently used as IS working stock solution. […] Working stock solutions were stored at 4 °C for 25 days.

In a further series the test system is rheumatoid arthritis. Further details: method as in PMID 26994322. As to conditions: approved pan-JAK inhibitors, moderate to severe rheumatoid arthritis; cited from earlier work.

Consider three molecules from PMC8915582, “Validated DBS method for filgotinib quantitation in rat dried blood spots and its application to a pharmacokinetic study in rats” (ADMET & DMPK, 2020).

Molecules are shown by their SMILES. Like-named read-outs stand apart in the source and are kept apart here.

As for `O=C(Nc1nc2cccc(-c3ccc(CN4CCS(=O)(=O)CC4)cc3)n2n1)C1CC1` [filgotinib], in series [1], the “tolerability, efficacy and safety in Phase-3 clinical trials” value was “well tolerated, showed efficacy and was found to be safe”. Also, in series [2] (intravenous, 2.0 mg/kg), the “AUC(0-∞)” value was […], the C0 is […], the CL was […] and the T1/2 is […]. For the same molecule, the Vd in series [2] (intravenous, 2.0 mg/kg) is 5.41 ± 0.77 L/kg. Moreover, in series [2] (oral, 10 mg/kg), the “AUC(0-∞)” value is […], the Cmax is […], the “F (absolute oral bioavailability)” value is 36.3% and the T1/2 is […]. Besides, in series [3], the “disease progression in a collagen-induced arthritis model” value was “dose-dependent reduction of disease progression”. Besides, in the series with JAK1, the 50% inhibitory concentration (IC50) is […]. Besides, the “selectivity over JAK2” value in the series with JAK2 is listed as […]. In series [4] (intravenous, 2.0 mg/kg), the total exposure AUC(0-inf) worked out at […], the Vd is […], the clearance amounted to […] and the half-life was 211 ± 13.8 min. Moreover, the C0 in series [4] (intravenous, 2.0 mg/kg, extrapolated concentration at time zero) was […]. Moreover, the bioavailability in series [4] (oral 10 mg/kg vs intravenous 2.0 mg/kg, read-out: F (absolute oral bioavailability)) was 42.5%. In addition, in series [4] (oral, 10 mg/kg), the area under the curve AUC(0-inf) came out at […], the highest level (Cmax) was […], the Tmax came out at […] and the half-life is […]. Besides, in series [5], the “time primary stock solution found to be stable” value was […].

Regarding `C[C@@H]1CCN(C(=O)CC#N)C[C@@H]1N(C)c1ncnc2[nH]ccc12` [Tofacitinib, tofacitinib], the toxicities result in the series on rheumatoid arthritis is listed as “dose-related toxicities”. The “time primary stock solution found to be stable” value in series [5] was 50 days.

For the molecule `CCS(=O)(=O)N1CC(CC#N)(n2cc(-c3ncnc4[nH]ccc34)cn2)C1` [baricitinib], in the series on rheumatoid arthritis, the toxicities result is given as “dose-related toxicities”.

For orientation: Cmax means the maximum level reached in the sampled fluid or tissue. As a reminder, the IC50 is the concentration needed to halve the response being measured. For orientation: AUC(0-inf) means the area under the concentration-time curve extrapolated to infinity. The term half-life denotes how long it takes for the measured level to halve. Low readings indicate fast loss, high ones slow loss. By bioavailability is commonly meant dose-corrected exposure relative to a reference, in per cent. What is called Tmax is the time at which the peak concentration occurs.
